Reference: US12637454B2, “Heterocyclic monoacylglycerol lipase (MAGL) inhibitors” (Hoffmann-La Roche Inc., priority 2019, dated 2026)

The compounds below were run against T1, MAGL (Homo sapiens, UniProt Q99685) (assay: 2-AG assay (MAGL inhibitory activity, hydrolysis of 2-arachidonoylglycerol followed by mass spectrometry)). Conditions: 50 pM MAGL, 8 μM 2-arachidonoylglycerol, 15 min preincubation, 30 min incubation at RT.
T1 sequence (Q99685 1-303): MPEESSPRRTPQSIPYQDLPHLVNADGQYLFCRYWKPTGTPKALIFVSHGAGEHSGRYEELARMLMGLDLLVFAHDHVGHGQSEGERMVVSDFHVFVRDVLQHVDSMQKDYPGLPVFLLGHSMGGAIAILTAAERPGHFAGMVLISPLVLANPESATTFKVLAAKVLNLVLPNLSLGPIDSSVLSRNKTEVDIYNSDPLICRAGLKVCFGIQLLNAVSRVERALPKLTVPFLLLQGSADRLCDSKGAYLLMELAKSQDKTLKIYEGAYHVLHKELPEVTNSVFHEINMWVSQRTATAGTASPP
Type: biochemical
Procedure, shortened: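 MAGL at 50 pM preincubated 15 min at RT with compound (12.5 μM to 0.8 pM, 3-fold) in 50 mM TRIS, 1 mM EDTA, 0.01% Tween. Reaction with 8 μM 2-arachidonoylglycerol ran 30 min at RT, quenched with ACN; arachidonic acid measured by SPE-MS/MS as ratio to d8-arachidonic acid.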
`O=C(c1cccc(-c2cc[nH]n2)c1Cl)N1CCN2C[C@@](O)(c3ccc(F)c(Cl)c3)CC[C@@H]2C1` [Example 54, [(7S,9aR)-7-(3-chloro-4-fluorophenyl)-7-hydroxy-3,4,6,8,9,9a-hexahydro-1H-pyrido[1,2-a]pyrazin-2-yl]-[2-chloro-3-(1H-pyrazol-3-yl)phenyl]methanone] gave an IC50 of 0.00308 µM.
Compound `O=C(c1cccc(-c2cc[nH]n2)c1F)N1CCN2C[C@@](O)(c3ccc(F)c(Cl)c3)CC[C@@H]2C1` [Example 55, [(7S,9aR)-7-(3-chloro-4-fluorophenyl)-7-hydroxy-3,4,6,8,9,9a-hexahydro-1H-pyrido[1,2-a]pyrazin-2-yl]-[2-fluoro-3-(1H-pyrazol-3-yl)phenyl]methanone] has an IC50 of 0.00904 µM.
For `O=C(c1cccc(-c2ccsn2)c1F)N1CCN2C[C@@](O)(c3ccc(Cl)cc3)CC[C@@H]2C1` [Example 56, [(7S,9aR)-7-(4-chlorophenyl)-7-hydroxy-3,4,6,8,9,9a-hexahydro-1H-pyrido[1,2-a]pyrazin-2-yl]-[2-fluoro-3-(1,2-thiazol-3-yl)phenyl]methanone], the IC50 was 0.0375 µM.
In the case of `O=C(c1cccc(-c2[nH]ncc2F)c1Cl)N1CCN2C[C@@](O)(c3ccc(F)c(Cl)c3)CC[C@@H]2C1` [Example 57, [(7S,9aR)-7-(3-chloro-4-fluorophenyl)-7-hydroxy-3,4,6,8,9,9a-hexahydro-1H-pyrido[1,2-a]pyrazin-2-yl]-[2-chloro-3-(4-fluoro-1H-pyrazol-5-yl)phenyl]methanone], the IC50 is reported as 0.00074 µM.
For `O=C(c1cccc(-c2ncsn2)c1Cl)N1CCN2C[C@@](O)(c3ccc(F)c(Cl)c3)CC[C@@H]2C1` [Example 58, [(7S,9aR)-7-(3-chloro-4-fluorophenyl)-7-hydroxy-3,4,6,8,9,9a-hexahydro-1H-pyrido[1,2-a]pyrazin-2-yl]-[2-chloro-3-(1,2,4-thiadiazol-3-yl)phenyl]methanone], the IC50 was 0.0142 µM.
In the case of `COc1cccc(C(=O)N2CCN3C[C@@](O)(c4ccc(F)c(F)c4)CC[C@@H]3C2)c1Cl` [Example 59, [(7S,9aR)-7-(3,4-difluorophenyl)-7-hydroxy-3,4,6,8,9,9a-hexahydro-1H-pyrido[1,2-a]pyrazin-2-yl]-(2-chloro-3-methoxyphenyl)methanone], the IC50 is reported as 0.0112 µM.
In the case of `COc1cccc(C(=O)N2CCN3C[C@](O)(c4ccc(F)c(F)c4)CC[C@H]3C2)c1Cl` [Example 60, [(7R,9aS)-7-(3,4-difluorophenyl)-7-hydroxy-3,4,6,8,9,9a-hexahydro-1H-pyrido[1,2-a]pyrazin-2-yl]-(2-chloro-3-methoxyphenyl)methanone], the IC50 is reported as 0.118 µM.
`O=C(c1cccc(-c2ccn[nH]2)c1F)N1CCN2C[C@@](O)(c3ccc(F)c(F)c3)CC[C@@H]2C1` [Example 61, [(7S,9aR)-7-(3,4-difluorophenyl)-7-hydroxy-3,4,6,8,9,9a-hexahydro-1H-pyrido[1,2-a]pyrazin-2-yl]-[2-fluoro-3-(1H-pyrazol-5-yl)phenyl]methanone] was tested, and the IC50 was 0.014 µM.
Work on `O=C(c1cccc(-c2[nH]ncc2F)c1F)N1CCN2C[C@@](O)(c3ccc(F)c(F)c3)CC[C@@H]2C1` [Example 62, [(7S,9aR)-7-(3,4-difluorophenyl)-7-hydroxy-3,4,6,8,9,9a-hexahydro-1H-pyrido[1,2-a]pyrazin-2-yl]-[2-fluoro-3-(4-fluoro-1H-pyrazol-5-yl)phenyl]methanone] yielded an IC50 of 0.0205 µM.
Work on `O=C(c1cccc(N2CC(O)C2)c1Cl)N1CCN2C[C@@](O)(c3ccc(F)c(F)c3)CC[C@@H]2C1` [Example 63, [(7S,9aR)-7-(3,4-difluorophenyl)-7-hydroxy-3,4,6,8,9,9a-hexahydro-1H-pyrido[1,2-a]pyrazin-2-yl]-[2-chloro-3-(3-hydroxyazetidin-1-yl)phenyl]methanone] yielded an IC50 of 0.0394 µM.
For `O=C(c1cccc(-c2[nH]ncc2F)c1Cl)N1CCN2C[C@@](O)(c3ccc(C(F)(F)F)cn3)CC[C@@H]2C1` [Example 64], the IC50 was 0.0134 µM.
`O=C(c1cccc2c1CCN2)N1CCN2C[C@@](O)(c3ccc(F)c(Cl)c3)CC[C@@H]2C1` [Example 65, [(7S,9aR)-7-(3-chloro-4-fluorophenyl)-7-hydroxy-3,4,6,8,9,9a-hexahydro-1H-pyrido[1,2-a]pyrazin-2-yl]-(2,3-dihydro-1H-indol-4-yl)methanone] was tested, and the IC50 was 0.0684 µM.
`O=C(c1cncc(-c2cc[nH]n2)c1Cl)N1CCN2C[C@@](O)(c3ccc(Cl)cc3)CC[C@@H]2C1` [Example 66, [(7S,9aR)-7-(4-chlorophenyl)-7-hydroxy-3,4,6,8,9,9a-hexahydro-1H-pyrido[1,2-a]pyrazin-2-yl]-[4-chloro-5-(1H-pyrazol-3-yl)pyridin-3-yl]methanone] showed an IC50 of 0.172 µM.
Work on `O=C(c1cccc(-c2ccsn2)c1Cl)N1CCN2C[C@@](O)(c3ccc(Cl)cc3)CC[C@@H]2C1` [Example 67, [(7S,9aR)-7-(4-chlorophenyl)-7-hydroxy-3,4,6,8,9,9a-hexahydro-1H-pyrido[1,2-a]pyrazin-2-yl]-[2-chloro-3-(1,2-thiazol-3-yl)phenyl]methanone] yielded an IC50 of 0.0146 µM.
For `O=C(c1cccc(-c2cnsc2)c1Cl)N1CCN2C[C@@](O)(c3ccc(Cl)cc3)CC[C@@H]2C1` [Example 68, [(7S,9aR)-7-(4-chlorophenyl)-7-hydroxy-3,4,6,8,9,9a-hexahydro-1H-pyrido[1,2-a]pyrazin-2-yl]-[2-chloro-3-(1,2-thiazol-4-yl)phenyl]methanone], the IC50 was 0.0825 µM.
Work on `O=C(c1cccc(-c2ccsn2)c1Cl)N1CCN2C[C@@](O)(c3ccc(C(F)(F)F)cn3)CC[C@@H]2C1` [Example 69, [(7R,9aR)-7-hydroxy-7-[5-(trifluoromethyl)pyridin-2-yl]-3,4,6,8,9,9a-hexahydro-1H-pyrido[1,2-a]pyrazin-2-yl]-[2-chloro-3-(1,2-thiazol-3-yl)phenyl]methanone] yielded an IC50 of 0.126 µM.
`Cc1c(C(=O)N2CCN3C[C@@](O)(c4ccc(Cl)cc4)CC[C@@H]3C2)cncc1-c1cc[nH]n1` [Example 70, [(7S,9aR)-7-(4-chlorophenyl)-7-hydroxy-3,4,6,8,9,9a-hexahydro-1H-pyrido[1,2-a]pyrazin-2-yl]-[4-methyl-5-(1H-pyrazol-3-yl)pyridin-3-yl]methanone] showed an IC50 of 0.994 µM.
